Test results from US20050031717A1, “Salt taste modification” (priority 2003, published 2005).
Entries after “also recorded” stand apart in the source; their conditions may differ. One block for each compound: values may come before it.

How the values were obtained:
[1] = test system: amiloride-insensitive salt taste receptor; test: Rat chorda tympani (CT) taste nerve recordings; type: in vivo; details: for effect on NaCl chorda tympani response: no Bz; for effect on RTX-enhanced NaCl chorda tympani response: 100 mM NaCl+5 μM benzamil+0.75 μM RTX, capsazepine 0-500 μM
Description: Chorda tympani nerve recordings. Recordings from the chorda tympani (CT) taste nerves of anesthetized rats were made. Recordings were made with various salt stimuli and with the taste receptive field under current or voltage clamp in order to observe the effect, if any, of modulating the driving force for ions through putative […] apical membrane ion channels involved in salt taste reception.

[2] = test system: amiloride-insensitive salt taste receptor; test: Chorda tympani responses in wildtype C57BL/6J mice; type: in vivo, mouse
[3] = test system: amiloride-insensitive salt taste receptor
[4] = test system: polarized rat fungiform taste receptor cells; test: [Na+]i measurement (Na-green F490) in polarized taste receptor cells, unilateral apical Na+ flux; type: cell-based
Description: [Na^+]i measurement in polarized taste receptor cells. A small piece of the anterior lingual epithelium containing a single fungiform papilla was mounted in a special microscopy chamber (Lyall et al., 2002, supra). Relative changes in intracellular sodium activity ([Na^+]i) were monitored in polarized taste receptor cells with the sodium sensitive fluoroprobe sodium-green. The taste receptor cells in the taste bud were visualized from the basolateral side through a 40× objective using a fluorescence microscope.

[5] = fixed RTX concentration (0.75 μM), 100 mM NaCl+5 μM Bz

Compound: Nc1ncnc2c1ncn2[C@@H]1O[C@H](COP(=O)(O)OP(=O)(O)OP(=O)(O)O)[C@@H](O)[C@H]1O [ATP, Adenosine 5′-triphosphate]
effect on chorda tympani response compared to 100 mM NaCl+5 μM benzamil+100 μM evodiamine ([1]; 100 μM evodiamine+500 μM ATP, 100 mM NaCl+5 μM benzamil): further enhancement | effect on the temperature threshold of the Bz-insensitive NaCl chorda tympani response ([1]; ATP 500 μM alone): no effect

effect on CT response at higher concentrations ([1]; 100 mM NaCl+5 μM benzamil): decrease | effect on CT response at low concentration ([1]; 100 mM NaCl+5 μM benzamil): enhances | temperature dependence of effectiveness ([1]; 41° versus 23°): more effective at 41°
Compound: COc1cc(CNC(=S)CC(COC(=O)C(C)(C)C)Cc2ccc(C)c(C)c2)ccc1O (centres unmarked) [Agonist 23, 2-(3,4-dimethylbenzyl)-3-{[(4-hydroxy-3-methoxybenzyl)amino]carbothioyl}propyl pivalate]

Compound: NC(=NCc1ccccc1)NC(=O)c1nc(Cl)c(N)nc1N [Bz, benzamil]
part of the NaCl chorda tympani response that was Bz-insensitive ([2]; wildtype mice, 23°, 100 mM NaCl+5 μM Bz): about 25%

Compound: C=C(C)[C@]12C[C@@H](C)[C@@]34O[C@](Cc5ccccc5)(O[C@@H]1[C@@H]3C=C(COC(=O)Cc1ccc(O)c(OC)c1)C[C@]1(O)C(=O)C(C)=C[C@@H]41)O2 [RTX, resiniferatoxin]
CT response profile ([1]; 10 mM KCl+0.5 μM RTX at 23°, no ethanol): only a transient phasic response | effect of RTX on the CT response to ethanol ([1]; 10 mM KCl+40% ETH+0.5 μM RTX, 23° and 42°): enhanced the response | effect on temperature threshold of the KCl CT response ([1]; 10 mM KCl+60% ETH+0.5 μM RTX): without affecting the temperature threshold | effect on NaCl chorda tympani response ([1]; 100 mM NaCl+1 μM RTX): reversibly increased | concentration at which enhancement of the Bz-insensitive NaCl chorda tympani response begins ([1]; 100 mM NaCl+5 μM Bz): 0.1 µM | concentration at which the Bz-insensitive NaCl chorda tympani response decreased to rinse level (eliminated) ([1]; 100 mM NaCl+5 μM Bz): around 10 μM | concentration at which the NaCl response returned to control level ([1]; 100 mM NaCl+5 μM Bz): around 3 μM | concentration of maximum enhancement of the Bz-insensitive NaCl chorda tympani response ([1]; 100 mM NaCl+5 μM Bz): 1 µM | rank order potency on the Bz-insensitive NaCl chorda tympani response ([1]; 100 mM NaCl+5 μM Bz): RTX>CAP>CPC | pH of greatest RTX-induced increase in the Bz-insensitive NaCl chorda tympani response ([1]; 100 mM NaCl+5 μM Bz+0.5 μM RTX, pHo 2-10): 6 | effect on Bz-insensitive NaCl chorda tympani response ([1]; 100 mM NaCl+5 μM Bz+1 μM RTX): same magnitude of enhancement | effect on NaCl chorda tympani response ([1]; 100 mM NaCl+10 μM RTX): reversibly decreased | effect on Bz-insensitive NaCl chorda tympani response ([1]; NaCl+5 μM Bz+10 μM RTX): reduced the response (j-k) to rinse level | effect on the CT responses to sucrose, quinine or H+ ions ([1]; rat, in vivo): no effect | effect on response to NaCl+Bz ([3]; VR1 knockout mice, 0.75 μM RTX, 23° and 42°): No effects | effect on Bz-insensitive NaCl chorda tympani response ([2]; wildtype mice, 23°, 100 mM NaCl+5 μM Bz+0.75 μM RTX): enhanced | response to RTX at 42° ([2]; wildtype mice, 42°, 100 mM NaCl+5 μM Bz+0.75 μM RTX): significantly enhanced relative to 23°

Compound: COc1cccc(NC(=O)C=Cc2ccc(Cl)cc2)c1 [SB-366791, N-(3-methoxyphenol)-4-chlorocinnamide]
effect on Bz-insensitive NaCl chorda tympani response at 23° and elevated temperatures ([1]; 1 μM SB-366791, 100 mM NaCl+5 μM Bz): completely blocked | effect on CT response to RTX+ETH ([1]; RTX+ETH+0.1 μM SB-366791, 23° and 42°): completely inhibited the tonic component | effect on transient phasic responses to ethanol ([1]; ethanol solutions containing 0.1 mM SB-366791): did not affect | increase in F490 on increase of apical Na+ concentration ([4]; 150 mM NaCl+): completely inhibited; also recorded: no increase | increase in F490 above baseline with ethanol ([4]; 150 mM NaCl++40% ETH): no further increase

chorda tympani response to KCl and NH4Cl at high capsaicin ([1]; 100 mM KCl, 100 mM NH4Cl, 200 μM capsaicin): a residual response remained | rank order potency on the Bz-insensitive NaCl chorda tympani response ([1]; 100 mM NaCl+5 μM Bz): RTX>CAP>CPC
Compound: COc1cc(CNC(=O)CCCC/C=C/C(C)C)ccc1O [capsaicin]
concentration at which the Bz-insensitive NaCl chorda tympani response decreased to rinse level (eliminated) ([1]; 100 mM NaCl+5 μM Bz): 200 µM | concentration of maximum enhancement of the Bz-insensitive NaCl chorda tympani response ([1]; 100 mM NaCl+5 μM Bz): 40 µM | concentration of maximum enhancement of the Bz-insensitive NaCl chorda tympani response ([1]; 100 mM NaCl+5 μM Bz, listed as CAP): around 40 μM

Compound: Oc1cc2c(cc1O)CN(C(=S)NCCc1ccc(Cl)cc1)CCC2 [capsazepine]
effect on RTX-enhanced NaCl chorda tympani response [1]: monotonically reduced | effect on RTX-enhanced NaCl chorda tympani response ([1]; listed as CZP): dose-dependent inhibition | effect on RTX concentration response curve of the Bz-insensitive NaCl chorda tympani response ([1]; CZP 10 μM, RTX 0-10 μM): shifted the RTX concentration response curve to the right | CZP concentration at which chorda tympani responses decreased to the level with NaCl alone [1, 5]: 100 µM | CZP concentration at which the chorda tympani response was below the level with NaCl alone [1, 5]: ≥ 250 µM | increase in F490 relative to 150 mM NaCl+5 mM Bz+40% ETH ([4]; 150 mM NaCl+5 mM Bz+40% ETH+100 mM CZP): significantly smaller increase

Compound: CCO [ethanol]
effect on CT response in the presence of RTX ([1]; 10 mM KCl+0.5 μM RTX, 40% ETH or 60% ETH, 23°): increased the CT response in a dose dependent manner | CT response profile ([1]; 10 mM KCl+20% ETH at 42°): phasic response followed by a sustained tonic phase | enhancement of the magnitude of the tonic component at 42° relative to 23° ([1]; 10 mM KCl+20% ETH+0.5 μM RTX): 50% | CT response profile ([1]; 10 mM KCl+20% ETH+0.5 μM RTX at 23°): both a phasic component and a sustained tonic component | CT response profile ([1]; 10 mM KCl+20% ETH, 23°): only a transient phasic response | CT response profile ([1]; 10 mM KCl+20% ETH, 23°, listed as ETH): did not increase the CT response above baseline | CT response profile ([1]; 10 mM KCl+30% ETH): only a transient phasic response | magnitude of CT response at 42° relative to 23° ([1]; 10 mM KCl+40% ETH): enhanced | CT response profile ([1]; 10 mM KCl+40% ETH, 23°, listed as ETH): transient phasic response that was followed by a sustained tonic response; also recorded: both a phasic and a tonic component | CT response profile ([1]; 10 mM KCl+50% ETH and 10 mM KCl+60% ETH): both phasic and tonic components | temperature producing a sharp increase in the KCl CT response ([1]; 10 mM KCl+60% ETH): 380 | temperature of maximum enhancement of the KCl CT response ([1]; 10 mM KCl+60% ETH, 23° to 55.5°): 41 ° | effect on magnitude of the Bz-insensitive NaCl CT response ([1]; 100 mM NaCl+5 mM Bz+60% ethanol): decreased | effect on magnitude of the Bz-insensitive NaCl CT response ([1]; 100 mM NaCl+5 mM Bz+ETH, 20% to 40% ethanol): dose-dependent increase | effect of 42° on CT response to ethanol relative to 23° ([1]; 80% ethanol, H2O rinse): no effect | ethanol concentration that inhibited CT responses ([1]; KCl and NaCl): > 60% | CT response to ethanol alone ([1]; ethanol 40%-100% in distilled H2O, 23°): only a transient phasic component | increase in F490 relative to zero ethanol ([4]; 150 NaCl+5 mM Bz+10% ethanol): bigger increase | increase in F490 relative to 10% ethanol ([4]; 150 NaCl+5 mM Bz+40% ethanol): further increase | change in F490 relative to zero ethanol ([4]; Na+-free Ringer's solution, 10% or 40% ethanol): no changes | CT response to R+60% ETH ([3]; VR1 KO mice, 10 mM KCl+60% ETH): no CT response | effect on the NaCl CT response or the Bz-insensitive NaCl CT response ([3]; VR1 KO mice, 60% ETH): no effect | CT response relative to 10 mM KCl ([2]; WT mice, 10 mM KCl+60% ETH): greater CT response | effect on Bz-insensitive NaCl CT response ([2]; WT mice, 100 mM NaCl+5 μM Bz+60% ETH): inhibited the CT response

Compound: Evodiamine
effect on chorda tympani response in rinse solution ([1]; 100 μM evodiamine in 10 mM KCl): no effect | concentration at which enhancement of the Bz-insensitive NaCl chorda tympani response begins ([1]; 100 mM NaCl+5 μM Bz): 30 µM | concentration of maximum enhancement of the Bz-insensitive NaCl chorda tympani response ([1]; 100 mM NaCl+5 μM Bz): 300 µM | concentration at which the response is the same as the control response ([1]; 100 mM NaCl+5 μM benzamil): 3 mM | effect on chorda tympani response at concentrations higher than 3 mM ([1]; 100 mM NaCl+5 μM benzamil): inhibited
